Assay results as given in patent publication US12396977B2, “Composition for treating degenerative brain diseases, containing 2-pentylfuran as active ingredient” (DAEGU GYEONGBUK INSTITUTE OF SCIENCE AND TECHNOLOGY, priority 2019, dated 2025).
Positions count from the first letter of the chain named. “Also recorded” adds a separate entry of the source.

Legend:
[1] = test system: microglia; experiment: GFP intensity / morphology of microglia in CX3CR1 GFP mice; assay type: in vivo, mouse; settings: cerebral cortex of CX3CR1 GFP mice after injection, vs control
Procedure: In order to analyze morphological changes in microglia activation, 9-week-old CX3CR1^GFP/− mice were used. Two hours after an IP containing or not containing 2-PF was injected into two mice, brain sections were collected by cryosection. After a 40 μm-thick brain tissue fragment was prepared to be smaller than 1 μm, a GFP signal of microglia was measured using a 40-fold magnification confocal microscope. A GFP-pixel signal of microglia was analyzed using Zeiss ZEN Software (Zeiss).

[2] = test system: microglia; experiment: Ex vivo phagocytosis of microglia in brain slices (time-lapse confocal); set-up: species or system mouse; settings: brain slices of CX3CR1 GFP/+ mice
Procedure: In this experiment, in order to examine the phagocytotic action of microglia, the brain of a 9-week-old male CX3CR1^GFP/+ mouse was cut to a thickness of 150 μm using a vibratome (Leica VT1200) and then stored in an ice-cooled artificial cerebrospinal fluid (aCSF: 120 mM NaCl, […], 25 mM NaHCO3, 1.25 mM NaH2PO4, 5 mM KCl, 1 mM CaCl2, 1 mM MgSO4, […], pH7.4). Thereafter, the sliced brain was cultured for removal of cell debris. Oxygenated aCSF was pretreated in a perfusion chamber at 37° C. for 2 hours. Subsequently, before culture, the sliced brain was cultured with 500 μl of aCSF containing 9.10×10^7 microspheres ([…]; #17458; Polysciences) and covered with a custom-made nylon grid. Time lapse videos were taken at intervals of 1 minute for 92 minutes using a confocal microscope. The number of phagocytosing microglia was calculated from the images.

[3] = target: T1, Olfr110 (Mus musculus, UniProt A2RT31); experiment: Luciferase assay in Hana3A cells, Olfr110; assay type: cell-based
T1 construct: Full-length odorant receptor genes from mouse and human genomic DNA were amplified using appropriate primers; Lucy (N); Flag (N); Rho (N); expressed in transfected cells; host or cells: Hana3A cells, co-transfected with RTP1S, pCRELuc and pRL-SV40
T1 sequence (A2RT31 1-317): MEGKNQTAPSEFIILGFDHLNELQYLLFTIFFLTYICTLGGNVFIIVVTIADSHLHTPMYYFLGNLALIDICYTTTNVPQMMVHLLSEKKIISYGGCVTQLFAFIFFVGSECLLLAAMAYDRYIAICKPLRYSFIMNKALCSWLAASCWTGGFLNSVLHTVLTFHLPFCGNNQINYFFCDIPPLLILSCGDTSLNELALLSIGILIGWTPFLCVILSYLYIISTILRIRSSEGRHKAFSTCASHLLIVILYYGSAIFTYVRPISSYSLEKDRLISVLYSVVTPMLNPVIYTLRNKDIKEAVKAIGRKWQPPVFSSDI
Procedure: Next, Hana3A cells were transfected with RTP1S, and their location and presence on the cell membrane were confirmed as previously described (Behrens et al., 2009; Zhuang and Matsunami, 2008). Such transfection was performed using Lipofectamine 2000 (#11668-019; Thermo Fisher Scientific) according to the manufacturer's instructions. More specifically, the transfected cells were grown on a coverslip (#0101050; Marienfeld) coated with poly D lysine (10 μg/ml; #P7280; Sigma Aldrich). Next, the cells were washed with a warm PBS solution and cooled with ice for 30 minutes to block endocytosis. […] The cells were then incubated with normal horse serum (#008-000-121; Jackson ImmunoResearch) at room temperature for 1 hour. […] After being washed with PBS, the cells were treated with a Cy3-conjugated donkey anti-mouse antibody (1:1,000; #715-165-150; Jackson ImmunoResearch), an Alexa488-conjugated donkey anti-mouse antibody (1:1,000; #715-545-150; Jackson ImmunoResearch), or a Cy3-conjugated donkey anti-rabbit antibody (1:1,000; #711-165-152; Jackson ImmunoResearch) at room temperature for 1 hour. The cells were mounted with a Vectashield fluorescent mounting medium containing DAPI (#H-1200; Vector Laboratories). The expression of heterologous odorant receptors was analyzed with a confocal laser scanning microscope LSM700 and ZEN software (Zeiss).
The Dual-Glo luciferase assay system (#E2940; Promega) was used for odorant receptor ligand screening. More specifically, Hana3A cells were streaked and spread on a white polystyrene 96-well plate (#353296; BD Biosciences) one day before transfection. pCRELuc (1 μg; #219076; Agilent Technologies), pRL-SV40 (1 μg; #E2231; Promega), RTP1S (1 μg), and OR (6 μg; or Mock) vectors were transfected for 24 hours in each plate. Each plate was analyzed using Lipofectamine 2000 (#11668-019; Thermo Fisher Scientific) according to the manufacturer's protocol. Transfected cells were stimulated in CD293 medium (#11913-019; Thermo Fisher Scientific) at 37° C. for 4 hours using diluted odorants at various concentrations. The activity of luciferase was normalized by the activity of Renilla luciferase. The amount of light emitted was measured using a SpectraMax L microplate reader (Molecular Devices).

[4] = test system: primary microglia; experiment: Phagocytosis of FITC-dextran by primary microglia (FACS); assay type: cell-based, mouse; settings: 100, 300, and 500 μM
Procedure: Primary microglia were cultured for 24 hours after being seeded in a 24-well plate (5×10^5 cells/well). Cells were pre-cultured with 2-PF or Sup for 30 minutes, transferred to FITC-dextran (1 mg/ml, 20 mg/ml in PBS; #FD70S; Sigma Aldrich) in serum-free DMEM at 37° C. for […], and washed with PBS at 4° C. Cells were detached by 0.25% trypsin in PBS (#15090-046; Thermo Fisher Scientific) and the detached cells were analyzed by FACS Accuri™ C6 (BD Biosciences). Mean fluorescence intensity (MFI) was calculated by integrating fluorescence histograms under each condition using the aforementioned software. The phagocytosis index was defined as MFI using an untreated group as a standard.

[5] = target: T2, Olfr110 F104W mutation (Mus musculus, UniProt A2RT31, F104W); experiment: Luciferase assay, Olfr110 F104W mutant; assay type: cell-based; settings: increasing concentration of 2-PF
T2 construct: Full-length odorant receptor genes from mouse and human genomic DNA were amplified using appropriate primers; Lucy (N); Flag (N); Rho (N); expressed in transfected cells; host or cells: Hana3A cells
T2 sequence (A2RT31 1-317 F104W): T1 sequence (A2RT31 1-317) with F104W
Text: Specific mutant vectors of the Olfr110 structure were generated using PfuUltra High-Fidelity DNA polymerase (#600380; Agilent Technologies). All mutant vectors (F102W; F104W; Y252F; Y259F; F102W/F104W; Y252F/Y259F; F102W/Y252F/Y259F; F104W/Y252F/Y259F; F102W/F104W/Y252F/Y259F) were sequenced in forward and reverse directions (Macrogen).

[6] = test system: cerebral cortex; experiment: Cytokine mRNA in cerebral cortex after IP injection (qRT-PCR); assay type: in vivo, mouse; settings: vs control
Text: For the measurement of mRNA, RNA was isolated from red blood cells, microglia, astrocytes, Hana3A cells, or cerebral cortical cells using the MagNa Lyser (Roche Molecular Diagnostics) using TRIzol reagent (Invitrogen, Carlsbad, CA.) according to the manufacturer's protocol. Then, cDNA was generated through reverse transcription using the isolated mRNA (using PrimeScript™ 1st str and cDNA Synthesis kit—#6110; Takara Bio Inc). This process was quantitatively measured in real time through quantitative real-time-PCR (using LightCycler® 480 SYBR Green I Master). The measured values were calculated using the 2-ΔΔCt method.

- mode of action at Olfr110 [3]: agonist
- luciferase activity of Olfr110 F104W mutant [5]: completely lost
Structure (SMILES): CCCCCc1ccco1 [2-PF, 2-pentylfuran]
- GFP intensity of microglia (morphological change, activation) [1]: highly increased
- ex vivo phagocytosis activity of microglia [2]: increased
- reactivity of Olfr110 (relative luciferase activity) ([3]; Hana3A cells): particularly strong reactivity; also recorded: strongest reactivity
- phagocytosis of microglia [4]: significantly increased in a concentration-dependent manner
- mRNA expression level of inflammatory cytokines in the cerebral cortex [6]: significantly increased
